The NIST ThermoML archive (doi:10.1016/j.tca.2016.09.005)
Numbers after ± are expanded uncertainties.

Assay: xn = mol fraction of the nth substance listed
Details: 100 kPa, Liquid; for speed of sound: Frequency=3 MHz, Sing-around technique in a fixed-path interferometer; for mass density: Vibrating tube method

OCCCO [propan-1,3-diol] + CCO
Details	mass density, 283.15 K [kg/m3]	mass density, 293.15 K [kg/m3]	mass density, 303.15 K [kg/m3]	mass density, 313.15 K [kg/m3]	speed of sound, 283.15 K [m/s]	speed of sound, 293.15 K [m/s]	speed of sound, 303.15 K [m/s]	speed of sound, 313.15 K [m/s]
x2 = 0	1058.85 ± 1.3	1052.61 ± 1.2	1046.36 ± 1.2	1040.07 ± 1.2	1659.5 ± 2.6	1636.3 ± 2.6	1613.6 ± 2.6	1591.1 ± 2.6
x2 = 0.05	1049.7 ± 1.2	1043.39 ± 1.2	1037.07 ± 1.2	1030.71 ± 1.2	1642.4 ± 2.6	1618.9 ± 2.6	1595.7 ± 2.6	1572.9 ± 2.6
x2 = 0.1	1040.25 ± 1.2	1033.87 ± 1.2	1027.48 ± 1.2	1021.03 ± 1.2	1623.9 ± 2.6	1600.1 ± 2.6	1576.5 ± 2.6	1553.2 ± 2.6
x2 = 0.15	1030.34 ± 1.1	1023.87 ± 1.1	1017.39 ± 1.1	1010.85 ± 1.1	1605.2 ± 2.5	1580.9 ± 2.5	1556.8 ± 2.5	1533.1 ± 2.5
x2 = 0.2	1020.03 ± 1.1	1013.44 ± 1.1	1006.78 ± 1.1	999.86 ± 1.1	1585.7 ± 2.5	1560.9 ± 2.5	1536.5 ± 2.5	1511 ± 2.5
x2 = 0.2499	1009.63 ± 1.1	1003 ± 1.1	996.35 ± 1.1	989.64 ± 1.1	1565.3 ± 2.5	1540.2 ± 2.4	1515.3 ± 2.4	1490.6 ± 2.4
x2 = 0.3004	998.62 ± 1.1	991.91 ± 1.1	985.17 ± 1.1	978.36 ± 1.1	1544.3 ± 2.4	1518.7 ± 2.4	1493.3 ± 2.4	1468.1 ± 2.4
x2 = 0.3502	987.34 ± 1	980.54 ± 1	973.69 ± 1	966.78 ± 1	1523 ± 2.4	1496.8 ± 2.4	1470.9 ± 2.4	1445.3 ± 2.4
x2 = 0.4	975.76 ± 1	968.84 ± 1	961.9 ± 1	954.88 ± 1	1501 ± 2.3	1474.2 ± 2.3	1447.8 ± 2.3	1421.7 ± 2.3
x2 = 0.4501	963.57 ± 1	956.56 ± 1	949.5 ± 1	942.36 ± 1	1478.2 ± 2.3	1450.8 ± 2.3	1423.8 ± 2.3	1397.1 ± 2.3
x2 = 0.5004	950.95 ± 1	943.82 ± 1	936.66 ± 1	929.42 ± 1	1454.4 ± 2.3	1426.5 ± 2.3	1399 ± 2.3	1371.7 ± 2.3
x2 = 0.5501	938.39 ± 0.99	931.16 ± 0.99	923.88 ± 0.99	916.52 ± 0.99	1431.2 ± 2.2	1402.8 ± 2.2	1374.6 ± 2.2	1346.8 ± 2.2
x2 = 0.6001	924.91 ± 0.98	917.56 ± 0.98	910.16 ± 0.98	902.67 ± 0.98	1406.4 ± 2.2	1377.6 ± 2.2	1348.8 ± 2.2	1320.4 ± 2.2
x2 = 0.65	911.17 ± 0.97	903.69 ± 0.97	896.16 ± 0.97	888.54 ± 0.97	1382.1 ± 2.2	1352.5 ± 2.2	1323.2 ± 2.2	1294.2 ± 2.2
x2 = 0.7	896.69 ± 0.96	889.09 ± 0.96	881.42 ± 0.96	873.66 ± 0.96	1356.6 ± 2.1	1326.3 ± 2.1	1296.4 ± 2.1	1266.8 ± 2.1
x2 = 0.7503	881.71 ± 0.96	873.96 ± 0.96	866.15 ± 0.96	858.23 ± 0.96	1331.1 ± 2.1	1300.1 ± 2.1	1269.4 ± 2.1	1239.1 ± 2.1
x2 = 0.8001	866.31 ± 0.95	858.42 ± 0.95	850.47 ± 0.95	842.41 ± 0.95	1304.9 ± 2.1	1273.3 ± 2.1	1242 ± 2.1	1211.1 ± 2.1
x2 = 0.8502	850.07 ± 0.95	842.04 ± 0.95	833.92 ± 0.95	825.7 ± 0.95	1278.5 ± 2	1246.2 ± 2	1214.2 ± 2	1182.7 ± 2
x2 = 0.9	833.71 ± 0.95	825.51 ± 0.95	817.24 ± 0.95	808.85 ± 0.95	1252.1 ± 2	1219 ± 2	1186.3 ± 2	1154 ± 2
x2 = 0.95	816.56 ± 0.95	808.22 ± 0.95	799.79 ± 0.95	791.23 ± 0.95	1225.1 ± 2	1191.3 ± 2	1157.9 ± 2	1125 ± 2

OCCCO [propan-1,3-diol] + CO
Details	mass density, 283.15 K [kg/m3]	mass density, 293.15 K [kg/m3]	mass density, 303.15 K [kg/m3]	mass density, 313.15 K [kg/m3]	speed of sound, 283.15 K [m/s]	speed of sound, 293.15 K [m/s]	speed of sound, 303.15 K [m/s]	speed of sound, 313.15 K [m/s]
x2 = 0	1058.85 ± 1.3	1052.61 ± 1.2	1046.36 ± 1.2	1040.07 ± 1.2	1659.5 ± 2.6	1636.3 ± 2.6	1613.6 ± 2.6	1591.1 ± 2.6
x2 = 0.05	1052.58 ± 1.2	1046.29 ± 1.2	1039.98 ± 1.2	1033.62 ± 1.2	1645.8 ± 2.6	1622.5 ± 2.6	1599.5 ± 2.6	1576.8 ± 2.6
x2 = 0.0996	1045.92 ± 1.2	1039.56 ± 1.1	1033.18 ± 1.1	1026.76 ± 1.1	1629.2 ± 2.5	1605.8 ± 2.5	1582.6 ± 2.5	1559.7 ± 2.5
x2 = 0.1503	1038.75 ± 1.1	1032.32 ± 1.1	1025.88 ± 1.1	1019.37 ± 1.1	1613.8 ± 2.5	1590.1 ± 2.5	1566.8 ± 2.5	1543.7 ± 2.5
x2 = 0.2	1031.38 ± 1.1	1024.87 ± 1.1	1018.34 ± 1.1	1011.73 ± 1.1	1596.8 ± 2.4	1572.8 ± 2.4	1549.2 ± 2.4	1525.8 ± 2.4
x2 = 0.2502	1023.44 ± 1.1	1016.87 ± 1	1010.26 ± 1	1003.55 ± 1	1578.8 ± 2.3	1554.7 ± 2.3	1530.8 ± 2.3	1507.1 ± 2.3
x2 = 0.2998	1015.08 ± 1	1008.41 ± 1	1001.72 ± 1	994.98 ± 1	1560.7 ± 2.3	1536.1 ± 2.3	1511.9 ± 2.3	1487.9 ± 2.3
x2 = 0.3491	1006.18 ± 1	999.42 ± 0.99	992.64 ± 0.99	985.81 ± 0.99	1540.2 ± 2.2	1515.4 ± 2.2	1490.9 ± 2.2	1466.6 ± 2.2
x2 = 0.3998	996.52 ± 0.98	989.65 ± 0.98	982.76 ± 0.97	975.82 ± 0.97	1519.5 ± 2.2	1494.2 ± 2.2	1469.3 ± 2.2	1444.7 ± 2.2
x2 = 0.4497	986.31 ± 0.96	979.34 ± 0.96	972.34 ± 0.96	965.29 ± 0.96	1497 ± 2.1	1471.6 ± 2.1	1446.3 ± 2.1	1421.4 ± 2.1
x2 = 0.5	975.38 ± 0.95	968.29 ± 0.95	961.17 ± 0.95	953.99 ± 0.95	1474 ± 2.1	1448 ± 2.1	1422.3 ± 2.1	1397 ± 2.1
x2 = 0.5501	963.77 ± 0.94	956.54 ± 0.94	949.29 ± 0.94	941.97 ± 0.94	1450.2 ± 2	1423.8 ± 2	1397.7 ± 2	1371.9 ± 2
x2 = 0.5994	951.07 ± 0.94	943.69 ± 0.94	936.28 ± 0.94	928.82 ± 0.94	1423.3 ± 2	1396.4 ± 2	1369.7 ± 2	1343.4 ± 2
x2 = 0.6501	936.86 ± 0.93	929.32 ± 0.93	921.74 ± 0.93	914.15 ± 0.93	1394.9 ± 2	1367.3 ± 2	1340.1 ± 2	1313.3 ± 1.9
x2 = 0.6998	922.43 ± 0.93	914.7 ± 0.93	906.94 ± 0.93	899.12 ± 0.93	1366.9 ± 1.9	1338.6 ± 1.9	1310.7 ± 1.9	1283.3 ± 1.9
x2 = 0.7499	906.27 ± 0.93	898.33 ± 0.93	890.37 ± 0.93	882.34 ± 0.93	1336 ± 1.9	1307.1 ± 1.9	1278.5 ± 1.9	1250.5 ± 1.9
x2 = 0.8	889.44 ± 0.93	881.29 ± 0.93	873.11 ± 0.93	864.86 ± 0.93	1305 ± 1.8	1275.3 ± 1.8	1246.1 ± 1.8	1217.4 ± 1.8
x2 = 0.8501	869.9 ± 0.93	861.5 ± 0.93	853.06 ± 0.93	844.55 ± 0.93	1269.1 ± 1.8	1238.8 ± 1.8	1208.7 ± 1.8	1179.2 ± 1.8
x2 = 0.9	849.27 ± 0.93	840.58 ± 0.94	831.86 ± 0.94	823.05 ± 0.94	1233.7 ± 1.8	1202.3 ± 1.8	1171.3 ± 1.8	1140.9 ± 1.8
x2 = 0.9501	826.76 ± 0.94	817.77 ± 0.94	808.72 ± 0.94	799.59 ± 0.94	1196 ± 1.8	1164 ± 1.8	1132.1 ± 1.8	1100.8 ± 1.8

OCCCO [propan-1,3-diol] + O
Details	mass density, 283.15 K [kg/m3]	mass density, 293.15 K [kg/m3]	mass density, 303.15 K [kg/m3]	mass density, 313.15 K [kg/m3]	speed of sound, 283.15 K [m/s]	speed of sound, 293.15 K [m/s]	speed of sound, 303.15 K [m/s]	speed of sound, 313.15 K [m/s]
x2 = 0	1058.85 ± 1.3	1052.61 ± 1.2	1046.36 ± 1.2	1040.07 ± 1.2	1659.5 ± 2.6	1636.3 ± 2.6	1613.6 ± 2.6	1591.1 ± 2.6
x2 = 0.1022	1059.27 ± 1.2	1053.04 ± 1.1	1046.79 ± 1.1	1040.48 ± 1.1	1672.9 ± 2.5	1650.1 ± 2.5	1627.2 ± 2.5	1605 ± 2.5
x2 = 0.201	1059.47 ± 1.1	1053.26 ± 1.1	1047.01 ± 1.1	1040.68 ± 1.1	1686.6 ± 2.4	1664 ± 2.4	1641.4 ± 2.4	1618.9 ± 2.4
x2 = 0.2987	1059.49 ± 1	1053.3 ± 1	1047.05 ± 1	1040.7 ± 1	1702 ± 2.3	1679.4 ± 2.3	1656.8 ± 2.3	1634.1 ± 2.3
x2 = 0.3998	1059.07 ± 0.98	1052.91 ± 0.98	1046.67 ± 0.97	1040.3 ± 0.97	1717.3 ± 2.2	1695.2 ± 2.1	1672.8 ± 2.1	1650.2 ± 2.1
x2 = 0.4997	1057.91 ± 0.95	1051.82 ± 0.95	1045.61 ± 0.94	1039.25 ± 0.94	1732 ± 2.1	1710.5 ± 2	1688.7 ± 2	1666.4 ± 2
x2 = 0.5997	1055.48 ± 0.93	1049.54 ± 0.93	1043.42 ± 0.92	1037.1 ± 0.92	1742.7 ± 2	1722.7 ± 2	1701.9 ± 2	1680.5 ± 2
x2 = 0.6999	1050.47 ± 0.91	1044.85 ± 0.91	1039.01 ± 0.91	1032.92 ± 0.91	1742 ± 1.9	1725.1 ± 1.9	1707.1 ± 1.9	1688.1 ± 1.9
x2 = 0.7999	1041.86 ± 0.91	1036.89 ± 0.91	1031.59 ± 0.91	1025.94 ± 0.91	1718.2 ± 1.8	1707.4 ± 1.8	1695 ± 1.8	1680.9 ± 1.8
x2 = 0.8997	1025.27 ± 0.91	1021.75 ± 0.91	1017.64 ± 0.91	1012.95 ± 0.91	1637.8 ± 1.9	1641.2 ± 1.8	1641.6 ± 1.8	1639 ± 1.8
